Assay results: patent publication US20170145472A1, “METHOD OF DETECTING HELICASE ACTIVITY” (University of Macau, priority 2015, published 2017)

What was measured:
Pu27 G-quadruplex DNA = assay: G-quadruplex fluorescent intercalator displacement (G4-FID) assay; format: binding
Procedure: The FID assay was performed as described. The Pu27 G-quadruplex DNA (0.25 μM) in Tris-HCl buffer (20 mM Tris, 100 mM KCl, pH 7.0) were annealed by heating at a temperature of 72-98° C., in particular 95° C., for at least 10 min. Indicated concentration of thiazole orange (0.5 μM for Pu27 G-quadruplex DNA and 0.5 μM for ds17) was added and the mixture was incubated for at least 30 minutes, in particular 1 hour. Emission measurement was taken after addition of each indicated concentration of complex 9 followed by an equilibration time for 5 minutes. The fluorescence area was converted into percentage of displacement (PD) by using the following equation. PD=100−[(FA/FA0)×100] (FA0=fluorescence area of DNA-TO complex in the absence of complex 9; FA=fluorescence area in the presence of complex 9).

F21T G-quadruplex DNA = assay: FRET melting assay, G-quadruplex; format: binding; conditions: F21T 0.2 μM, complex 9 5 μM
Procedure: (§1) The ability of complex 9 to stabilize G-quadruplex DNA was investigated using a fluorescence resonance energy transfer (FRET) melting assay. The labeled G-quadruplex-forming oligonucleotide F21T, consisting of a sequence 5′-FAM-(SEQ ID NO: 5)-TAMRA-3′ (donor fluorophore FAM: 6-carboxyfluorescein; acceptor fluorophore TAMRA: 6-carboxytetramethylrhodamine), was diluted to 200 nM in a potassium cacodylate buffer (100 mM KCl, pH 7.0), and then heated from room temperature to 95° C. in the presence of the indicated concentrations of complex 9. The labeled duplex-forming oligonucleotide F10T, consisting of a sequence 5′-FAM-[…]-HEG-(SEQ ID NO: 6)-3′ (HEG linker: [(—CH2—CH2—O—)6]), was treated in the same manner, except that the buffer was changed to 10 mM lithium cacodylate (pH 7.4). Fluorescence readings were taken at intervals of 0.5° C. in a range of 25 to 95° C.

helicase = biological target: T1, helicase (Hepatitis C virus genotype 1a, UniProt P27958); assay: Luminescence response of complexes towards helicase alone
T1 construct: upon the addition of 0.8 μM HCV NS3 helicase; purchased Prospec Inc. (Ness-Ziona, Israel)
Text: M G-quadruplex DNA over helicase, IG4/Ihelicase refers to the ratio of the lunminscent response of PS2. M G-quadruplex DNA over helicase.

F10T dsDNA = assay: FRET melting assay, duplex; format: binding; conditions: F10T 0.2 μM, complex 9 5 μM
Procedure: as §1

PS2.M G-quadruplex DNA = assay: Luminescence response of Ir(III) complexes towards different forms of DNA; format: binding; conditions: complex 1 μM, DNA 5 μM
Text: M G-quadruplex DNA (G4) over dsDNA (ds17) and ssDNA (CCRS-DEL), in particular IG4/IdsDNA refers to the ratio of the luminescent response of PS2. M G-quadruplex DNA over dsDNA (ds17); and IG4/IssDNA refers to the ratio of the luminescent response of PS2. M G-quadruplex DNA over ssDNA(CCR5-DEL).
M G-quadruplex DNA over dsDNA (ds17) and ssDNA (CCRS-DEL), in particular IG4/IdsDNA refers to the ratio of the luminescent response of PS2. M G-quadruplex DNA over dsDNA (ds17); and IG4/IssDNA refers to the ratio of the luminescent response of PS2. M G-quadruplex DNA over ssDNA(CCR5-DEL).
The G-quadruplex DNA-forming sequence (PS2. M) was annealed in Tris-HCl buffer (20 mM Tris, 100 mM KCl, pH 7.0) and were stored at −20° C. or less than −20° C. before use. Complex 1-17 (1 μM) was added to 5 μM of ssDNA, dsDNA or PS2. M G-quadruplex DNA in Tris-HCl buffer (20 mM Tris, pH 7.0).

HCV NS3 helicase = biological target: T2, HCV NS3 helicase (Hepatitis C virus genotype 1a, UniProt P27958); assay: G-quadruplex-based luminescent HCV NS3 helicase activity assay; format: biochemical
T2 construct: upon the addition of 0.8 μM HCV NS3 helicase; purchased Prospec Inc. (Ness-Ziona, Israel)
Procedure: The random-coil oligonucleotides ON1 (100 μM) and ON2 (100 μM) were incubated in Tris buffer (20 mM, pH 7.0). The solution was heated at a temperature of 72-98° C., in particular 95° C., for at least 30 seconds in particular 10 min, cooled to room temperature at 0.1° C./s, and further incubated at room temperature for 1 hour to ensure formation of the duplex substrate. The annealed product was stored at −20° C. before use. For assaying enzyme activity, 50 μL of Tris buffered solution (5 mM Tris-HCl, 5 mM NaCl, 1 mM MgCl2, 1 mM ATP, 0.1 mM DTT, pH 7.9) with the indicated concentrations of helicase or S1, Endo, DpnI, ExoI, EcoRI, RNase, DNase, and SSB were added to a solution containing the duplex substrate (0.25 μM). The mixture was heated to 37° C. for at least 30 minutes, e.g. 2 hours, to allow the indicated enzymes-catalyzed unwinding of the duplex substrate to take place. The duplex unwinding reaction was quenched by the addition of EDTA at a final concentration of 20 mM, and the mixture was subsequently diluted using Tris buffer (20 mM Tris, 20 mM KCl, 150 mM NH4Ac, pH 7.2) to a final volume of 500 μL. […] Emission spectra were recorded in the 500-720 nm range using an excitation wavelength of 360 nm.
For the detection of helicase activity in cell extract, 50 μL of Tris buffered solution (5 mM Tris-HCl, 5 mM NaCl, 1 mM MgCl2, 1 mM ATP, 0.1 mM DTT, pH 7.9) and the indicated concentrations of helicase were added to a solution containing the duplex substrate (0.25 μM) and cell extract. The mixture was heated to 37° C. for at least 30 minutes, e.g. 2 hours, to allow the helicase-catalyzed unwinding of the duplex substrate to take place. The duplex unwinding reaction was quenched by the addition of EDTA at a final concentration of 20 mM, and the mixture was subsequently diluted using Tris buffer (20 mM Tris, 20 mM KCl, 150 mM NH4Ac, pH 7.2) to a final volume of 500 μL. Finally, 1 μM of complex 9 was added to the mixture. Emission spectra were recorded in the 500-720 nm range using an excitation wavelength of 360 nm.

[1] = Photophysical measurement; format: physicochemical
Procedure: Emission spectra and lifetime measurements for complexes were performed on a PTI TimeMaster C720 Spectrometer (Nitrogen laser: pulse output 337 nm) fitted with a 380 nm filter. Error limits were estimated: λ (±1 nm); τ (±10%); φ (±10%). All solvents used for the lifetime measurements were degassed using three cycles of freeze-vac-thaw.
Luminescence quantum yields were determined using the method of Demas and Crosby [Ru(bpy)3][PF6]2 in degassed acetonitrile as a standard reference solution (Φr=0.062) and calculated according to the following equation:
Φs=Φr(Br/Bs)(ns/nr)^2(Ds/Dr) • where the subscripts s and r refer to sample and reference standard solution respectively, n is the refractive index of the solvents, D is the integrated intensity, and Φ is the luminescence quantum yield. The quantity B was calculated by B=1−10^−AL, where A is the absorbance at the excitation wavelength and L is the optical path length.

T2 sequence (P27958 1027-1657): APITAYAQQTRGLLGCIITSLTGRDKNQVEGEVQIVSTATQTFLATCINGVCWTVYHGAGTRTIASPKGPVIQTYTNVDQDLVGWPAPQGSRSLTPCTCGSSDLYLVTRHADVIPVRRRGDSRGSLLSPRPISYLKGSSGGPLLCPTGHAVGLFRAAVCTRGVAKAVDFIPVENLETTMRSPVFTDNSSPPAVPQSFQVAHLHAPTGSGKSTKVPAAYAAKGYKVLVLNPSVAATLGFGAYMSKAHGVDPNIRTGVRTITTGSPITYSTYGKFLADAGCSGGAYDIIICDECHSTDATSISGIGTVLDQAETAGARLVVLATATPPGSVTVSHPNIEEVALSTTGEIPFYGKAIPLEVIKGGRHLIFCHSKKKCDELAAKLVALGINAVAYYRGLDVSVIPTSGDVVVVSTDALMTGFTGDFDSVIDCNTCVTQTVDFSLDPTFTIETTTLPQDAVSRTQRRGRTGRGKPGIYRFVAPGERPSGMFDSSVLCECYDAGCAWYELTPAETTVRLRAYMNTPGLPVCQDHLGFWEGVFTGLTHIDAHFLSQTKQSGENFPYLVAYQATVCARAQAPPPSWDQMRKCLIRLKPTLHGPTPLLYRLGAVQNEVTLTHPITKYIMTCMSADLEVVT
T1 sequence (P27958 1027-1657): as above

## F[P-](F)(F)(F)(F)F.[Ir+3].[c-]1ccccc1-c1ccc2ccccc2n1.[c-]1ccccc1-c1ccc2ccccc2n1.c1cnc2c(c1)ccc1cccnc12 [Complex 9]
Pu27 G-quadruplex DNA; Pu27 G-quadruplex DNA 0.25 μM, thiazole orange 0.5 μM, Tris-HCl buffer
  G4DC50, half-maximal concentration of compound required to displace 50% TO from DNA: ca. 5 μM
Pu27 G-quadruplex DNA; Pu27 G-quadruplex vs ds17 duplex
  displacement of thiazole orange from G-quadruplex DNA compared with duplex DNA: higher efficacy than from duplex DNA
F21T G-quadruplex DNA
  increase of melting temperature (ΔTm) of F21T G-quadruplex: about 13 °C
helicase; 0.8 μM HCV NS3 helicase
  change in luminescence intensity of the complex 9+G-quadruplex ensemble upon addition of helicase: no significant change
helicase; helicase alone, no DNA
  luminescence enhancement in the presence of helicase only: no luminescence enhancement in the presence of helicase
F10T dsDNA
  change in the melting temperature of F10T dsDNA: 4 °C
PS2.M G-quadruplex DNA
  luminescence response in the presence of the PS2.M G-quadruplex: significantly enhanced luminescence response
HCV NS3 helicase; ON1-ON2 duplex substrate, K+
  luminescence of complex 9 upon incubation with helicase and the ON1-ON2 duplex substrate: significantly enhanced
HCV NS3 helicase; ON1m/ON2 duplex mutant 0.25 μM, helicase 0.9 μM, complex 9 1 μM
  luminescence of complex 9 in response to helicase for the mutant DNA sequences: slight decrease
HCV NS3 helicase; helicase concentration 0.9 μM
  enhancement in luminescence of the system: ca. 4.5 fold
HCV NS3 helicase; reaction system containing 0.5% (v/v) cell extract
  luminescence intensity of the system with increasing helicase in cell extract: gradual increase in luminescence intensity
HCV NS3 helicase; signal-to-noise ratio (S/N) of 3
  detection limit of the assay for helicase: 0.09 µM
[1]
  Lifetime: 8.13 μs
  λem: 570 nm
[1]; reference [Ru(bpy)3][PF6]2 in degassed acetonitrile
  Quantum yield: 0.12
